Laboratory results reported in patent US20250332105A1, “AMORPHOUS SOLID DISPERSION COMPRISING (S)-1-(1-ACRYLOYLPYRROLIDIN-3-YL)-3-((3,5-DIMETHOXYPHENYL)ETHYNYL)-5-(METHYLAMINO)-1H-PYRAZOLE-4-CARBOXAMIDE” (BEIJING INNOCARE PHARMA TECH CO., LTD., priority 2024, published 2025).
Converted amounts (≈) assume the structure as drawn.

Assays:
[1] = Equilibrium solubility in water; format: physicochemical; details: after equilibrium in water at room temperature for 24 hours
[2] = Solubility profiles in pH 6.8 phosphate buffer; format: physicochemical; details: aqueous buffer, thermodynamic from solid, 37° C., 150 rpm, n = 3
Experimental: Phosphate buffer (pH 6.8): 3.40 g of potassium dihydrogen phosphate and 0.45 g of sodium hydroxide were dissolved in 500 mL of water.
Type A: About 8.0 mg of Type A sample was added to 20 mL of the phosphate buffer (pH 6.8) in a 30-mL glass vial. The vial was capped, placed in a shaker, and kept shaking with 150 rpm at 37° C. At indicated time intervals (10, 30, 60, 120, 240 min), a fraction of the suspension was removed and filtered through a 0.45-μm filter by discarding the first part of the filtrate. The filtrate was diluted and then analyzed by HPLC.
ASD: An appropriate amount of ASD (about 3.0 mg of Compound I) was added to 7.5 mL of the phosphate buffer (pH 6.8) in a 30-mL glass vial. The vial was capped, placed in a shaker, and kept shaking with 150 rpm at 37° C. At indicated time intervals (10, 30, 60, 120, 240 min), a fraction of the suspension was removed and centrifuged at 12,000 rpm for 5 minutes to give a clear solution that was then analyzed by HPLC.

[3] = Glass transition temperature determination by DSC; format: physicochemical; details: 0 to 210° C. at 10° C./min
Experimental: Type A: Accurately weighted Type A sample (2˜5 mg) was placed in a DSC pan which was then sealed and placed in TA Instruments Q2000. The pan was heated from room temperature to 230° C. at a rate of 20° C./min and after 5 min, rapidly cooled to 0° C. at a rate of 50° C./min. After another 5 min, the DSC analysis was carried out between 0 to 210° C. at a rate of 10° C./min.
ASD: Accurately weighted ASD sample (2˜5 mg) was placed in a DSC pan which was then sealed and placed in TA Instruments Q2000. The pan was heated from room temperature to 135° C. at a rate of 20° C./min and after 5 minutes, rapidly cooled to 0° C. at a rate of 50° C./min. After another 5 min, the DSC analysis was carried out between 0 to 210° C. at a rate of 10° C./min (FIG. 2 and FIG. 3).

[4] = Stability assessment of ASD (XRPD, DSC, solubility, relative substances after storage); format: physicochemical; details: no storage (drug substance)
Description: Capped brown glass vials each containing an ASD sample (HPMCAS-10-SDD and PVPVA-10-HME) were placed inside stability chambers.

[5] = In vivo PK, oral administration in beagle dogs; details: dog, blood, fasted beagle dogs, 3 mg/kg, Type A as 0.5% MC suspension, HPMCAS-10-SDD as tablet
Experimental: Type A and HPMCAS-10-SDD were formulated with excipients, respectively. The PK properties of two formulations administered orally in beagle dogs were evaluated. Each formulation was tested in three dogs, each weighed 8˜12 kg.
A formulation was prepared by wet granulation. Firstly, mannitol, pregelatinized starch, sodium carboxymethyl starch and sodium dodecyl sulfate of different amounts were mixed evenly according to Table 8. Secondly, Type A and Povidone K30 were added into an appropriate amount of absolute alcohol, stirred, and mixed as adhesive. Finally, the adhesive was added to the evenly mixed excipients, followed by granulation, drying, addition of magnesium stearate, and mixing into a powder.
The above formulation was added to 0.5% methylcellulose (MC) to give a suspension containing 0.6 mg/mL of Compound I. The suspension was then orally administered to fasted beagle dogs at 5 mL/kg, which was equivalent to a dose of 3 mg/kg. Blood samples were collected at 0.25, 0.5, 1, 2, 4, 8 and 24 hours post dose. Concentrations of Compound I were quantified by LC-MS/MS analysis using an API-4500 mass spectrometer.
A formulation was prepared by dry granulation. […]
Four tablets were orally administered to fasted beagle dogs at a dose of 3 mg/kg. […] Concentrations of Compound I were quantified by LC-MS/MS analysis.

- solubility [1]: 6.4 µg/mL (≈ 15.1 µM)
- solubility at 10 min ([2]; 10 min): 4.88 µg/mL (≈ 11.5 µM)
- solubility at 30 min ([2]; 30 min): 7.91 µg/mL (≈ 18.7 µM)
- solubility at 60 min ([2]; 60 min): 7.81 µg/mL (≈ 18.4 µM)
- solubility at 120 min ([2]; 120 min): 7.62 µg/mL (≈ 18 µM)
- solubility at 240 min ([2]; 240 min): 8.47 µg/mL (≈ 20 µM)
- Tg [3]: 70.1 °C
- Total Impurities [4]: 0.19%
- AUC(0-t) [5]: 1250 ng·h/mL
- Cmax [5]: 270 ng/mL
SMILES: C=CC(=O)N1CC[C@H](n2nc(C#Cc3cc(OC)cc(OC)c3)c(C(N)=O)c2NC)C1 [Type A, (S)-1-(1-acryloylpyrrolidin-3-yl)-3-((3,5-dimethoxyphenyl)ethynyl)-5-(methylamino)-1H-pyrazole-4-carboxamide]
